Test results as given in publication PMC7586336 (Journal of Medicinal Chemistry, 2020).
Converted amounts (≈) assume the structure as drawn.

Key:
E. coli DSM 1116 = assay: Antibiotic susceptibility; format: cell-based; settings: Escherichia coli, DSM1116
P. aeruginosa PA14 wt = assay: Antibiotic susceptibility; format: cell-based, Pseudomonas aeruginosa
P. aeruginosa PAO1 wt = assay: Antibiotic susceptibility; format: cell-based, Pseudomonas aeruginosa
E. coli K12 MG1655 = assay: Antibiotic susceptibility; format: cell-based; settings: Escherichia coli
P. aeruginosa PA14 ΔlecA = assay: Antibiotic susceptibility; format: cell-based; settings: Pseudomonas aeruginosa
P. aeruginosa PA14 ΔlecB = assay: Antibiotic susceptibility; format: cell-based; settings: Pseudomonas aeruginosa
[1] = Microsomal stability, mouse liver microsomes; format: in vitro ADME; settings: one experiment
[2] = Microsomal stability, human liver microsomes; format: in vitro ADME; settings: one experiment
HEK293 cells = assay: Cytotoxicity; format: cell-based, human; settings: HEK 293 and A549, 100 μM, 48 h incubation
Calu-3 HTB-55 = assay: Cell permeability, Transwell system; format: in vitro ADME, human; settings: after 4 h, data not shown
E. coli gyrase = E. coli gyrase (Escherichia coli, UniProt P0AES4+P0AES6); format: biochemical
A549 cells = assay: Cytotoxicity; format: cell-based, human; settings: 48 h, MTT
[3] = P. aeruginosa PA14 wt + 1 μg/mL PMBN
[4] = P. aeruginosa PAO1 wt + 1 μg/mL PMBN

Chain of E. coli gyrase (P0AES4 whole entry, one chain of several): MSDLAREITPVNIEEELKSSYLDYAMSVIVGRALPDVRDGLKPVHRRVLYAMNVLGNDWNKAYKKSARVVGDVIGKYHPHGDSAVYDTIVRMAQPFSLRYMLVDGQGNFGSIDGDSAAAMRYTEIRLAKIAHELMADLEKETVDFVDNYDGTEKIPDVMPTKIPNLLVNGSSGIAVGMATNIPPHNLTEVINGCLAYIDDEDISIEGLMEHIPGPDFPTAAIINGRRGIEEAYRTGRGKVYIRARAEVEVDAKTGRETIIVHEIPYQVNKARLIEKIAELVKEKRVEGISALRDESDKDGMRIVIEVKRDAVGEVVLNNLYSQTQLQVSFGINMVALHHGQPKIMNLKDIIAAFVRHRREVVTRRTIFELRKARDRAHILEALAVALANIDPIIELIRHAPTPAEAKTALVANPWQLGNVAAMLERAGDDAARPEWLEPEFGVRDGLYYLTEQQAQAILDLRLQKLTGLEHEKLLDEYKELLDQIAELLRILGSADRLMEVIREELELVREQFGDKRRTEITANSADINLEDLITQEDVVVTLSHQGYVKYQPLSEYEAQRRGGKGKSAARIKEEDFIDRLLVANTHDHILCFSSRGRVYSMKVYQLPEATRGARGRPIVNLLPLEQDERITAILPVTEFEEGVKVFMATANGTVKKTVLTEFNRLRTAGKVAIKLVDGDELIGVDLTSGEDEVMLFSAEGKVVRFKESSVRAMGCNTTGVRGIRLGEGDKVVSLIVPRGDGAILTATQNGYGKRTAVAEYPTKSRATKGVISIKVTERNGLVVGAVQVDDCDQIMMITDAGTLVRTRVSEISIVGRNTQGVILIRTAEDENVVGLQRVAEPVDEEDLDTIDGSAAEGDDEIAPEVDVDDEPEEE

For O=C(CCCn1cc(CCN2CCN(c3cc4c(cc3F)c(=O)c(C(=O)O)cn4C3CC3)CC2)nn1)Nc1ccc(S[C@@H]2O[C@H](CO)[C@H](O)[C@H](O)[C@H]2O)cc1 [compound 27], which MIC (E. coli DSM 1116) is on record?
The MIC was 4 to 32 µg/mL (≈ 5.12 to 40.9 µM).

What about the MIC (P. aeruginosa PA14 wt; [3]) of the same compound?
Its MIC is 32 to 64 µg/mL.

What about the MIC (P. aeruginosa PAO1 wt; [4]) of the same compound?
Its MIC is 32 to 64 µg/mL.

For O=C(CCn1cc(CCN2CCN(c3cc4c(cc3F)c(=O)c(C(=O)O)cn4C3CC3)CC2)nn1)Nc1ccc(S[C@@H]2O[C@H](CO)[C@H](O)[C@H](O)[C@H]2O)cc1 [compound 25], which MIC (P. aeruginosa PA14 wt; [3]) is on record?
The MIC was 32 to 64 µg/mL.

What about the MIC (P. aeruginosa PAO1 wt; [4]) of the same compound?
Its MIC is 32 to 64 µg/mL.

For O=C(CCCn1cc(CN2CCN(c3cc4c(cc3F)c(=O)c(C(=O)O)cn4C3CC3)CC2)nn1)Nc1ccc(S[C@@H]2O[C@H](CO)[C@H](O)[C@H](O)[C@H]2O)cc1 [compound 26], which MIC (E. coli K12 MG1655) is on record?
The MIC was 1 to 2 µg/mL (≈ 1.3 to 2.6 µM).

And the MIC (E. coli DSM 1116)?
Its MIC is 2 to 32 µg/mL (≈ 2.6 to 41.7 µM).

What about the MIC (P. aeruginosa PA14 wt; Pseudomonas aeruginosa, PA14) of the same compound?
The MIC was 8 to 16 µg/mL (≈ 10.4 to 20.8 µM).

And the MIC (P. aeruginosa PA14 ΔlecA)?
Its MIC is 8 to 16 µg/mL (≈ 10.4 to 20.8 µM).

And the MIC (P. aeruginosa PA14 ΔlecB)?
Its MIC is 8 to 16 µg/mL (≈ 10.4 to 20.8 µM).

And the MIC (P. aeruginosa PAO1 wt; [4])?
The MIC was 4 to 8 µg/mL.

What about the MIC (P. aeruginosa PAO1 wt; Pseudomonas aeruginosa, PAO1) of the same compound?
The MIC was 16 to 32 µg/mL (≈ 20.8 to 41.7 µM).

Which MIC (E. coli K12 MG1655) does the source give for O=C(Cn1cc(CCN2CCN(c3cc4c(cc3F)c(=O)c(C(=O)O)cn4C3CC3)CC2)nn1)Nc1ccc(S[C@@H]2O[C@H](CO)[C@H](O)[C@H](O)[C@H]2O)cc1 [compound 23] here?
Its MIC is 8 to 16 µg/mL (≈ 10.6 to 21.2 µM).

What about the MIC (P. aeruginosa PA14 wt; [3]) of the same compound?
Its MIC is 16 to 64 µg/mL.

What about the MIC (P. aeruginosa PAO1 wt; [4]) of the same compound?
Its MIC is 32 to 64 µg/mL.

For O=C(CCCCn1cc(CN2CCN(c3cc4c(cc3F)c(=O)c(C(=O)O)cn4C3CC3)CC2)nn1)Nc1ccc(S[C@@H]2O[C@H](CO)[C@H](O)[C@H](O)[C@H]2O)cc1 [compound 28], which MIC (E. coli K12 MG1655) is on record?
The MIC was 2 to 4 µg/mL (≈ 2.56 to 5.12 µM).

And the MIC (E. coli DSM 1116)?
The MIC was 4 to 32 µg/mL (≈ 5.12 to 40.9 µM).

And the MIC (P. aeruginosa PA14 wt; [3])?
Its MIC is 2 to 8 µg/mL.

What about the MIC (P. aeruginosa PA14 ΔlecB) of the same compound?
Its MIC is 32 to 64 µg/mL (≈ 40.9 to 81.9 µM).

And the MIC (P. aeruginosa PAO1 wt; [4])?
Its MIC is 8 to 16 µg/mL.

And the MIC (P. aeruginosa PAO1 wt; Pseudomonas aeruginosa, PAO1)?
The MIC was 32 to 64 µg/mL (≈ 40.9 to 81.9 µM).

Which MIC (E. coli DSM 1116) does the source give for O=C(CCn1cc(CN2CCN(c3cc4c(cc3F)c(=O)c(C(=O)O)cn4C3CC3)CC2)nn1)Nc1ccc(S[C@@H]2O[C@H](CO)[C@H](O)[C@H](O)[C@H]2O)cc1 [compound 24] here?
The MIC was 2 to 4 µg/mL (≈ 2.65 to 5.31 µM).

And the MIC (P. aeruginosa PA14 wt; [3])?
The MIC was 8 to 16 µg/mL.

And the MIC (P. aeruginosa PA14 wt; Pseudomonas aeruginosa, PA14)?
Its MIC is 8 to 16 µg/mL (≈ 10.6 to 21.2 µM).

What about the MIC (P. aeruginosa PA14 ΔlecA) of the same compound?
Its MIC is 8 to 16 µg/mL (≈ 10.6 to 21.2 µM).

And the MIC (P. aeruginosa PA14 ΔlecB)?
The MIC was 8 to 32 µg/mL (≈ 10.6 to 42.5 µM).

And the MIC (P. aeruginosa PAO1 wt; [4])?
The MIC was 4 to 8 µg/mL.

Which results are given for O=C(CCCCn1cc(CCN2CCN(c3cc4c(cc3F)c(=O)c(C(=O)O)cn4C3CC3)CC2)nn1)Nc1ccc(S[C@@H]2O[C@H](CO)[C@H](O)[C@H](O)[C@H]2O)cc1 [compound 29]?
MIC (E. coli DSM 1116): 4 to 32 µg/mL (≈ 5.03 to 40.2 µM); MIC (P. aeruginosa PA14 wt; [3]): 32 to 64 µg/mL; MIC (P. aeruginosa PAO1 wt; [4]): 32 to 64 µg/mL

For O=C(O)c1cn(C2CC2)c2cc(N3CCNCC3)c(F)cc2c1=O [compound 3, ciprofloxacin, reference compound], which MIC (P. aeruginosa PA14 ΔlecA) is on record?
The MIC was 0.05 to 0.08 µg/mL (≈ 0.151 to 0.241 µM).

And the MIC (P. aeruginosa PA14 ΔlecB)?
Its MIC is 0.05 to 0.08 µg/mL (≈ 0.151 to 0.241 µM).

What about the MIC (P. aeruginosa PAO1 wt; Pseudomonas aeruginosa, PAO1) of the same compound?
Its MIC is 0.025 to 0.08 µg/mL (≈ 0.0754 to 0.241 µM).

Which MIC (E. coli DSM 1116) does the source give for O=C(Cn1cc(CN2CCN(c3cc4c(cc3F)c(=O)c(C(=O)O)cn4C3CC3)CC2)nn1)Nc1ccc(S[C@@H]2O[C@H](CO)[C@H](O)[C@H](O)[C@H]2O)cc1 [compound 22] here?
The MIC was 2 to 4 µg/mL (≈ 2.7 to 5.41 µM).

And the MIC (P. aeruginosa PA14 wt; [3])?
Its MIC is 4 to 16 µg/mL.

What about the MIC (P. aeruginosa PA14 ΔlecA) of the same compound?
Its MIC is 16 to 32 µg/mL (≈ 21.6 to 43.3 µM).

What about the MIC (P. aeruginosa PA14 ΔlecB) of the same compound?
The MIC was 16 to 32 µg/mL (≈ 21.6 to 43.3 µM).

And the MIC (P. aeruginosa PAO1 wt; [4])?
Its MIC is 4 to 8 µg/mL.

What about the MIC (P. aeruginosa PAO1 wt; Pseudomonas aeruginosa, PAO1) of the same compound?
Its MIC is 16 to 32 µg/mL (≈ 21.6 to 43.3 µM).

What about the “metabolic stability CLMIC MLM” value [1] of the same compound?
The value was 10 μL/min/mg protein.

And the “metabolic stability CLMIC HLM” value [2]?
Its value is 10 μL/min/mg protein.

And the “acute cytotoxicity (in words)” value (HEK293 cells)?
The value was “no cytotoxicity”.

What about the “permeation (apical to basal) over Calu-3 HTB-55 cells” value (Calu-3 HTB-55) of the same compound?
The value was “No detectable permeation”.

Which MIC (P. aeruginosa PA14 wt; [3]) does the source give for C#CCN1CCN(c2cc3c(cc2F)c(=O)c(C(=O)O)cn3C2CC2)CC1 [compound 20, N-Propargyl-ciprofloxacin] here?
The MIC was 0.025 to 0.5 µg/mL.

And the MIC (P. aeruginosa PA14 wt; Pseudomonas aeruginosa, PA14)?
Its MIC is 2 to 4 µg/mL (≈ 5.41 to 10.8 µM).

What about the MIC (P. aeruginosa PA14 ΔlecA) of the same compound?
The MIC was 4 to 8 µg/mL (≈ 10.8 to 21.7 µM).

And the MIC (P. aeruginosa PAO1 wt; [4])?
Its MIC is 1 to 2 µg/mL.

And the MIC (P. aeruginosa PAO1 wt; Pseudomonas aeruginosa, PAO1)?
The MIC was 4 to 8 µg/mL (≈ 10.8 to 21.7 µM).

And the “factor of decrease in gyrase inhibitory concentration compared to 3” value (E. coli gyrase)?
The value was 3.5.

Which MIC (E. coli K12 MG1655) does the source give for C[C@@H]1O[C@H](CNS(=O)(=O)c2ccc(CCn3cc(CN4CCN(c5cc6c(cc5F)c(=O)c(C(=O)O)cn6C5CC5)CC4)nn3)s2)[C@@H](O)[C@H](O)[C@@H]1O [compound 30] here?
Its MIC is 8 to 16 µg/mL (≈ 10.5 to 21 µM).

What about the MIC (E. coli DSM 1116) of the same compound?
Its MIC is 16 to 32 µg/mL (≈ 21 to 42 µM).

What about the MIC (P. aeruginosa PAO1 wt; [4]) of the same compound?
The MIC was 32 to 64 µg/mL.

What about the “metabolic stability CLMIC MLM” value [1] of the same compound?
Its value is 10 μL/min/mg protein.

And the “metabolic stability CLMIC HLM” value [2]?
The value was 15 μL/min/mg protein.

And the “acute cytotoxicity (in words)” value (HEK293 cells)?
The value was “no cytotoxicity”.

And the “cytotoxicity @ 100 μM A549” value (A549 cells)?
Its value is “–9 ± 15 % inhibition”.

And the “permeation (apical to basal) over Calu-3 HTB-55 cells” value (Calu-3 HTB-55)?
Its value is “No detectable permeation”.
